Experimental data reported in publication PMC6212778, “Site-specific amino acid substitution in dodecameric peptides determines the stability and unfolding of c-MYC quadruplex promoting apoptosis in cancer cells” (Nucleic Acids Research, 2018).
Entries after “also recorded” stand apart in the source; their conditions may differ.

Tests used:
[1] = system: native c-MYC quadruplex (Pu27); test: ITC of peptides with native c-MYC quadruplex Pu27 in potassium phosphate buffer; assay type: binding, human; conditions: for K A / Kd / ΔG (binding energy) / ΔH (binding enthalpy) / ΔS (entropy): 25°C, 20 μM peptide in cell, 500 μM Pu27 in syringe, 10 mM potassium phosphate, 0.1 M KCl, pH 7.0, one-site model
Experimental: The putative wild-type and truncated G-quadruplex forming sequences (Table 2 and Supplementary Table S1), located at the upstream of c-MYC promoter are reconstituted in 10 mM Potassium Phosphate buffer (pH 7.0) having 100 mM potassium chloride (KCl). The sequences are allowed to evolve G-quadruplex structure in solution by annealing at 95°C followed by gradual cooling. (Supplementary information Section 1).
(§1) Thermodynamic attributes of the interaction profiles between peptides and putative quadruplex sequences are analysed by ITC using iTC200 Microcalorimeter at 25°C. Synthetic peptides (FK13, KR12A, KR12B, KR12C, KR12D and KR12E) are diluted to 20 μM in 10 mM Potassium phosphate buffer (10 mM K2HPO4 + 10 mM KH2PO4) containing 0.1 M KCl (pH 7.0). Syringe is filled with 500 μM quadruplex sequences present in the upstream promoter regions of c-MYC (Pu27, Pu19, and Myc22), BCL-2 (Pu30), VEGF-A (Pu22), KRAS (Pu32) oncogenes, and telomere (Tel26) dissolved into the same buffer. We also carried out the experiment for KR12C and Pu27 using MCF-7 nuclear extract as the solvent to mimic the cellular microenvironment and impart macromolecular crowding during binding events. Same concentration of oligonucleotides is injected into the identical buffer or in nuclear extract without peptides to normalize the heat of dilution of peptide-quadruplex association to that of the control before curve-fitting. Oligonucleotides are injected 20 times at an interval of 150 s into the calorimeter cell having the peptides to achieve binding saturation. The heat of reaction per injection (μcal/s) is determined by integration of the peak areas using in-built Origin 7.0 software that provides the best-fit values of enthalpy (ΔH) and entropy (ΔS) of binding, the binding stoichiometry (n), and dissociation constant (Kd) (Supplementary Tables S5(a), S5(b) and S5(c)). Data points are further simulated with ‘one-site’ binding modes (Supplementary information Section 1).

[2] = system: VEGF-A promoter (VEGF-A-GQ) in MCF-7 cells; test: Dual-luciferase assay, VEGF-A promoter with VEGF-A-GQ; assay type: cell-based, human; conditions: MCF-7, 24 h, peptide 0–60 μM
Experimental: MCF-7 cells are sub-cultured into 24-well microtiter plates at a cell density of 1 × 10^5 cells/well. Reporter constructs (c-MYC, BCL-2, KRAS and VEGF-A) (500 ng) with and/or without the G-quadruplex scaffolds triggering the expression of Renilla luciferase are co-transfected with 50 ng of pGL3-control vectors (Promega) (used as internal control), encoding firefly luciferase into MCF-7 cells using Lipofectamine® 3000 transfection reagent (Thermo-Fisher Scientific) following manufacturer's recommendations (Supplementary information Section 1). Twenty four hours post-transfection, cells are treated with peptides (FK13, KR12A, KR12B, KR12C, KR12D and KR12E) at an increasing concentration gradient.
Dual-luciferase assays are performed to examine the intracellular selectivity of peptides for c-MYC quadruplex isomers (Pu27, Myc22 and Pu19) over other oncogenic quadruplexes (BCL-2, VEGF-A and KRAS) of different topologies. The role of peptide-quadruplex complex in oncogene promoter activation is investigated in contrast to the GQ-null promoter constructs into MCF-7 cells ([67]). After 24 h of peptide treatment, cells are washed and lysed into 100 μl 1× Passive lysis buffer (PLB) for 15 min at room temperature. Renilla and firefly Luciferase activities in 25 μl lysate are quantified by Dual-Luciferase® reporter assay system (Promega) as per manufacturer's recommendations. Renilla luciferase enzyme activity is normalized to that of the firefly luciferase activity and luminescence of the peptide-treated samples are normalized to the untreated ones, which yield the fold induction values for Renilla activities by different quadruplex structures in presence and absence of synthetic peptides. Luminescence of each sample is detected in GloMax® 20/20 Single-Tube Luminometer (Promega) in triplicates and averaged from three independent experiments.

[3] = system: c-MYC transcripts in MCF-7 cells; test: Real time PCR of c-MYC transcripts; assay type: cell-based, human; conditions: MCF-7, 24 h, qPCR normalised to GAPDH
Experimental: (§2) To inspect the transcription inhibitory roles of peptides in c-MYC, BCL-2, VEGF-A and KRAS oncogenes having putative quadruplexes in their promoters, we performed real time polymerase chain reactions. MCF-7 cells are sub-cultured into 6-well microtiter plates at a density of 1 × 10^6 cells per well and treated with different concentrations of peptides (FK13, KR12A, KR12B and KR12C) for 24 hours. Total RNA is isolated from both untreated and treated cells using TRIzol method (Invitrogen) as per manufacturer's instructions. 2 μg of total RNA is processed for cDNA synthesis and reverse transcribed using a Super MuLV RT Kit (Biobharati Life Sciences Pvt. Ltd.). Real time PCR is performed using Maxima SYBR Green/ROX qPCR Master Mix (2×) (Thermo-Scientific) as per manufacturer's protocol. Housekeeping gene, GAPDH is used as an internal control to normalize the variability in c-MYC mRNA expression levels (Supplementary information Section 1). PCR primers are designed using Primer-BLAST, NCBI, and analyzed in OligoAnalyser 3.1-IDT (Supplementary Table S2).

[4] = system: BCL-2, VEGF-A, KRAS transcripts in MCF-7 cells; test: Real time PCR of other oncogene transcripts; assay type: cell-based, human; conditions: MCF-7, 24 h, qPCR
Experimental: as §2

c-MYC quadruplex (Pu27) = test: ITC of KR12C with Pu27 under macromolecular crowding (MCF-7 nuclear extract); assay type: binding, human
Experimental: as §1, with “Oligonucleotides are injected 20 times at an interval of 150 s into the calorimeter cell having the peptides to achieve binding saturation.” left out, “Data points are further simulated with ‘one-site’ binding modes (Supplementary information Section 1).” left out

[5] = system: telomere (Tel26) quadruplex; test: ITC of peptides with telomeric quadruplex; assay type: binding, human; conditions: potassium phosphate buffer pH 7.0
Experimental: as §1, with “Oligonucleotides are injected 20 times at an interval of 150 s into the calorimeter cell having the peptides to achieve binding saturation.” left out, “Data points are further simulated with ‘one-site’ binding modes (Supplementary information Section 1).” left out

KRAS (Pu32) quadruplex = test: ITC of peptides with KRAS quadruplex; assay type: binding, human; conditions: potassium phosphate buffer pH 7.0
Experimental: as §1, with “Oligonucleotides are injected 20 times at an interval of 150 s into the calorimeter cell having the peptides to achieve binding saturation.” left out, “Data points are further simulated with ‘one-site’ binding modes (Supplementary information Section 1).” left out

[6] = system: c-MYC quadruplex isomer Myc22; test: CD melting of free and peptide-bound Myc22; assay type: binding, human
Experimental: To understand the role of peptides (FK13, KR12A, KR12B, KR12C, KR12D and KR12E) in stabilizing native and truncated isomers of c-MYC G-quadruplex, we have performed temperature-driven CD melting experiments for free and peptide-bound complexes in JASCO-J815 CD spectrometer. We have gradually titrated the peptides into 10 μM of putative quadruplexes and acquired the spectra after 5 min of peptide addition to allow complex formation and equilibration. Samples are heated from 20 to 95°C having the temperature gradient and the delay time of 2.5°C/min and 150 s respectively. Since the quadruplexes unfold at higher temperatures and revert back to their initial conformations upon renaturation, we have assumed a ‘two-state transition’ model (folded and unfolded) to analyze the melting curves and estimated the melting temperatures (Tm) by fitting the data points into sigmoidal curves (Supplementary information Section 1).

[7] = potassium phosphate buffer pH 7.0

Kd [1] | ΔG (binding energy) [1] | ΔH (binding enthalpy) [1] | fold higher binding ΔH for Pu27 association compared to KR12B and KR12D [1, 7] | Kd (c-MYC quadruplex (Pu27); 25°C, MCF-7 nuclear extract as solvent, single-site model, background subtracted) | fold increase in binding affinity for Pu27 in MCF-7 nuclear extract versus potassium phosphate buffer (c-MYC quadruplex (Pu27); macromolecular crowding) | binding affinity with KRAS quadruplex (KRAS (Pu32) quadruplex) | rise in the Tm of Myc22 upon peptide binding ([6]; 10 μM quadruplex, two-state model) | depletion of the melting temperature of Myc22 upon peptide binding [6] | Substance | K A [1] | ΔS (entropy) [1] | VEGF-A promoter activity [2] | c-MYC transcription [3] | transcription of other oncogenes (BCL-2, VEGF-A, KRAS) [4] | times higher affinity for Pu27 compared to KR12B and KR12D [1, 7] | fold decreased affinity for telomeric quadruplex compared to c-MYC quadruplexes [5] | c-MYC transcription, fold repression [3]
34.6 µM | -5.982 kcal/mol | -77.8 kcal/mol | – | – | – | – | – | – | N – FKRIVQRIKDFLR – C [FK13] | 28900 M⁻¹ | −241 cal/mol/deg | significantly downregulate; also recorded: strongly inhibited | did not downregulate c-MYC transcription | abrogated | – | – | –
8.06 µM | -6.974 kcal/mol | -47.8 kcal/mol | ~2 fold | 0.901 µM | ~8 fold | very poor or no binding affinity | 6.91 °C | – | N – KRIVKLIKKWLR – C [KR12C] | 124000 M⁻¹ | −137 cal/mol/deg | no significant impact | – | – | ~5 times | ~4 fold | ~5 fold
37.3 µM | -6.18 kcal/mol | -137.3 kcal/mol | – | – | – | – | – | – | N – KRIVKRIKKWLR – C [KR12B, dodecameric mutant peptide derived from FK13 / LL37] | 26800 M⁻¹ | −440 cal/mol/deg | strongly inhibited | – | – | – | – | ~5 fold
61.7 µM | -6.44 kcal/mol | -72 kcal/mol | – | – | – | – | – | ~30 °C | N – KRIVQRIKKWLR – C [KR12A, dodecameric mutant peptide derived from FK13 / LL37] | 16200 M⁻¹ | −220 cal/mol/deg | significantly downregulate | downregulated c-MYC transcription in a dose-dependent manner | abrogated | – | – | –
